Measured values published in patent US20070213301A1 (ACHILLION PHARMACEUTICALS, INC., priority 2006, published 2007).

Tested on: HCV replicon
Test: HCV replicon replication assay (NPTII ELISA)
Assay type: cell-based, Hepatitis C virus (Huh-7 cells)
Conditions: Hepatitis C virus, Huh-7, 72 h, inhibition of HCV replicon replication in Huh-7 HCV replicon-containing cells, three days incubation, NPT level by ELISA; read-out: EC50
Summary of the method: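 Huh-7 cells carrying a Bartenschlager NPTII (neo) HCV replicon, treated 3 days at 37 °C with compound, generally 6 concentrations from 10 to 0.03 micromolar, in equal DMSO across wells. NPTII level, proportional to replication, read by capture ELISA on methanol:acetone-fixed cells; interferon alpha positive control; toxicity scored visually or by MTS.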

CCCCCOc1ccc(N(C(=O)C2CC2)c2nc(CN(C)C)cs2)cc1C(F)(F)F [Compound 22, N-(4-((dimethylamino)methyl)thiazol-2-yl)-N-(4-(pentyloxy)-3-(trifluoromethyl)phenyl)cyclopropane-carboxamide]
EC50: 1 to 10 µM

CCCCCCCCOc1ccc(N(C(=O)CC(=O)OC)c2nc(-c3ccc(F)cc3)cs2)cc1 [Compound 44, methyl 3-((4-(4-fluorophenyl)thiazol-2-yl)(4-(octyloxy)phenyl)amino)-3-oxopropanoate]
EC50: < 1 µM

CCCCCOc1ccc(N(C(=O)C(C)OC(C)=O)c2nc(-c3cccnc3)cs2)cc1C(F)(F)F (stereo not drawn) [Compound 64, 1-oxo-1-((4-(pentyloxy)-3-(trifluoromethyl)phenyl)(4-(pyridin-3-yl)thiazol-2-yl)amino)propan-2-yl acetate]
EC50: < 1 µM

CCCCCCCCc1ccc(N(C(=O)CN(C)C)c2nc(-c3cccnc3)c(F)s2)cc1C(F)(F)F [Compound 170, 2-(dimethylamino)-N-(5-fluoro-4-(pyridin-3-yl)thiazol-2-yl)-N-(4-octyl-3-(trifluoromethyl)phenyl)acetamide]
EC50: < 1 µM

CCCCCCCCOc1ccc(N(C(=O)COC(C)=O)c2nc(-c3cccnc3)cs2)cc1 [Compound 67, 2-((4-(octyloxy)phenyl)(4-(pyridin-3-yl)thiazol-2-yl)amino)-2-oxoethyl acetate]
EC50: < 1 µM

CCCCCCCCOc1ccc(N(C(=O)C(=O)OC)c2nc(-c3ccc(Cl)s3)cs2)cc1 [Compound 97, methyl 2-((4-(5-chlorothiophen-2-yl)thiazol-2-yl)(4-(octyloxy)phenyl)amino)-2-oxoacetate]
EC50: < 1 µM

CCCCCOc1ccc(N(C(C)=O)c2nc(-c3ccc(F)cc3)cs2)cc1C(F)(F)F [Compound 1, N-(4-(4-fluorophenyl)thiazol-2-yl)-N-(4-(pentyloxy)-3-(trifluoromethyl)phenyl)acetamide]
EC50: < 1 µM

CCCCCCCCOc1ccc(N(C(N)=O)c2nc(-c3cccnc3)c(F)s2)cc1C(F)(F)F [Compound 176, 1-(5-fluoro-4-(pyridin-3-yl)thiazol-2-yl)-1-(4-(octyloxy)-3-(trifluoromethyl)phenyl)urea]
EC50: < 1 µM

CCCCCCOc1ccc(N(C(N)=O)c2nc(-c3ccccn3)cs2)cc1 [Compound 123, 1-(4-(hexyloxy)phenyl)-1-(4-(pyridin-2-yl)thiazol-2-yl)urea]
EC50: < 1 µM

CCCCCCCCOc1ccc(N(C(=O)C(=O)OCC)c2nc(-c3cccnc3)cs2)cc1 [Compound 66, ethyl 2-((4-(octyloxy)phenyl)(4-(pyridin-3-yl)thiazol-2-yl)amino)-2-oxoacetate]
EC50: < 1 µM

CCCCCCCCc1ccc(N(C(=O)OCCOP(=O)(O)O)c2nc(-c3cccnc3)c(F)s2)cc1C(F)(F)F [Compound 183, 2-(phosphonooxy)ethyl 5-fluoro-4-(pyridin-3-yl)thiazol-2-yl(4-octyl-3-(trifluoromethyl)phenyl)carbamate]
EC50: < 1 µM

CCCCCOc1ccc(N(C(=O)OC)c2nc(-c3cccnc3)cs2)cc1C(F)(F)F [Compound 31, methyl 4-(pentyloxy)-3-(trifluoromethyl)phenyl(4-(pyridin-3-yl)thiazol-2-yl)carbamate]
EC50: < 1 µM

CC(C)COc1ccc(N(C(N)=O)c2nc(-c3ccc(O)c(C(N)=O)c3)cs2)cc1C(F)(F)F [Compound 148, 2-hydroxy-5-(2-(1-(4-isobutoxy-3-(trifluoromethyl)phenyl)ureido)thiazol-4-yl)benzamide]
EC50: < 1 µM

CCCCCOc1ccc(N(C(=O)C2CCCCC2)c2nc(-c3cccnc3)cs2)cc1C(F)(F)F [Compound 32, N-(4-(pentyloxy)-3-(trifluoromethyl)phenyl)-N-(4-(pyridin-3-yl)thiazol-2-yl)cyclohexanecarboxamide]
EC50: < 1 µM

CN(C)CC(=O)N(c1ccc(OCCCCc2cccs2)c(C(F)(F)F)c1)c1nc(-c2cccnc2)c(F)s1 [Compound 173, 2-(dimethylamino)-N-(5-fluoro-4-(pyridin-3-yl)thiazol-2-yl)-N-(4-(4-(thiophen-2-yl)butoxy)-3-(trifluoromethyl)phenyl)acetamide]
EC50: < 1 µM

CCCCCCCOc1ccc(N(C(=O)C2CCCCC2)c2nc(-c3ccccn3)cs2)cc1 [Compound 95, N-(4-(heptyloxy)phenyl)-N-(4-(pyridin-2-yl)thiazol-2-yl)cyclohexanecarboxamide]
EC50: 1 to 10 µM

CCCCCOc1ccc(N(C(=O)OC)c2nc(-c3ccc(F)cc3)cs2)cc1C(F)(F)F [Compound 47, methyl 4-(4-fluorophenyl)thiazol-2-yl(4-(pentyloxy)-3-(trifluoromethyl)phenyl)carbamate]
EC50: < 1 µM

CCCCCCCCc1ccc(N(C(=O)OCCN(C)C)c2nc(-c3cccnc3)c(F)s2)cc1C(F)(F)F [Compound 179, 2-(dimethylamino)ethyl 5-fluoro-4-(pyridin-3-yl)thiazol-2-yl(4-octyl-3-(trifluoromethyl)phenyl)carbamate]
EC50: < 1 µM

CCCCCOc1ccc(N(C(=O)C(N)=O)c2nc(-c3cccnc3)cs2)cc1C(F)(F)F [Compound 153, N1-(4-(pentyloxy)-3-(trifluoromethyl)phenyl)-N1-(4-(pyridin-3-yl)thiazol-2-yl)oxalamide]
EC50: < 1 µM

Cc1ccc(-c2csc(N(C(N)=O)c3ccc(OCC(C)C)c(C(F)(F)F)c3)n2)cn1 [Compound 147, 1-(4-isobutoxy-3-(trifluoromethyl)phenyl)-1-(4-(6-methylpyridin-3-yl)thiazol-2-yl)urea]
EC50: < 1 µM

CCCCCCOc1ccc(N(C(N)=O)c2nc(-c3ccc(O)c(C(N)=O)c3)cs2)cc1 [Compound 144, 5-(2-(1-(4-(hexyloxy)phenyl)ureido)thiazol-4-yl)-2-hydroxybenzamide]
EC50: 1 to 10 µM

CCCCCCCOc1ccc(N(C(=O)C(=O)OC)c2nc(-c3ccc(Cl)s3)cs2)cc1 [Compound 98, methyl 2-((4-(5-chlorothiophen-2-yl)thiazol-2-yl)(4-(heptyloxy)phenyl)amino)-2-oxoacetate]
EC50: < 1 µM

CC(C)COc1ccc(N(C(N)=O)c2nc(-c3ccc(F)c(F)c3)cs2)cc1C(F)(F)F [Compound 126, 1-(4-(3,4-difluorophenyl)thiazol-2-yl)-1-(4-isobutoxy-3-(trifluoromethyl)phenyl)urea]
EC50: < 1 µM

CCCCCOc1ccc(N(C(N)=O)c2nc(-c3cccnc3C)cs2)cc1C(F)(F)F [Compound 70, 1-(4-(2-methylpyridin-3-yl)thiazol-2-yl)-1-(4-(pentyloxy)-3-(trifluoromethyl)phenyl)urea]
EC50: < 1 µM

CCCCCCCCOc1ccc(N(C(=O)C(=O)OC)c2nc(-c3ccc(F)c(F)c3)cs2)cc1 [Compound 58, methyl 2-((4-(3,4-difluorophenyl)thiazol-2-yl)(4-(octyloxy)phenyl)amino)-2-oxoacetate]
EC50: < 1 µM

CCCCCOc1ccc(N(C(C)=O)c2nc(-c3cccnc3)cs2)cc1F [Compound 24, N-(3-fluoro-4-(pentyloxy)phenyl)-N-(4-(pyridin-3-yl)thiazol-2-yl)acetamide]
EC50: < 1 µM

CCCCCCCCOc1ccc(N(C(=O)CNC(=O)OC(C)(C)C)c2nc(-c3cccnc3)c(F)s2)cc1C(F)(F)F [Compound 164, tert-butyl 2-((5-fluoro-4-(pyridin-3-yl)thiazol-2-yl)(4-(octyloxy)-3-(trifluoromethyl)phenyl)amino)-2-oxoethylcarbamate]
EC50: < 1 µM
